Assay results: patent US8598132B2, “Glycosylated indolocarbazoles, method for obtaining same and uses thereof” (Universidad de Oviedo, priority 2008, dated 2013)

Columns and labels:
Type in all cases: biochemical
[1] = target: T1, Dyrk1a (Homo sapiens, UniProt Q13627); assay: LabChip (Caliper) kinase assay, Dyrk1a; settings: for inhibition at 0.01 µM: compound at 10 nM; for inhibition at 0.01 µM / inhibition at 0.1 µM: read-out: remaining kinase activity (in %) / percentage of inhibition; for inhibition at 0.1 µM: compound at 100 nM; for IC50: ATP at Km, read-out: CI50 (the source's name)
T1 construct: purchased Upstate
Description: (§1) The analysis of kinase activity described here was performed using LabChip (Caliper Life Sciences), specifically the Caliper LC3000 and the EZ Reader II instruments.
(§2) The kinase assay used measures the conversion of a fluorescent peptide (substrate) to a phosphorylated product. The reaction mixture, in a microplate well, is introduced by a capillary in a chip where the non-phosphorylated substrate and the phosphorylated product are separated by […]. The intensity of the fluorescent signal over time is related to the reaction progress. The phosphorylated product migrates quicker than the non-phosphorylated substrate and the signals of the two forms of the peptide appear as differentiated peaks. The Caliper determines the peak height and calculates the ratio of product to the peak sum (P/(P+S)). This value is used to compare wells with compounds and wells with controls and thus determine the % of inhibition for the given product.
(§3) The followings kinases were used for the enzymatic inhibition studies, between brackets the value of the Michaelis-Menten constant, Km, of the ATP (Adenosine triphosphate) for each kinase, in μM: obtained from Carna Biosciences: MAPKAPK2 (4.6), AurA (3.6), AurB (5), PKCζ (3.8), RSK1 (23.3), PRAK (5), Erk1 (33.4), PKD2 (32.1), CK1d (16.3), CHK1 (33), ABL (61.7), FYN (36), LYNa (17), CHK2 (57.8), MET (79.5), LCK (28.5), SRC (38), GSK3β (7.3), Erk2 (62.1), PKACα (1.7), AKT2 (186.1), INSR (871.8), p38a (396.5), AKT1(48), MSK1 (21.2), PKCβ2 (84.8), ROCK2 (3.3), PIM2 (4.9), AMPK (38.6), KDR (164.8), IRAK4 (196.5), SGK1 (121.8), SYK (33.5); obtained from Invitrogen: CDK2 (57.6), BTK (123), HGK (80); obtained from Upstate: MST2 (36.6), PKGα (16), PAK2 (1.9), IGF1R (320), FGFR1 (171), MARK1 (33), CAMK2δ (22.4), c-TAK1 (66), DYRK1a (18.1), CaMK4 (3.9), FLT3 (350), c-Raf (6.2), P70S6K (95).
(§4) The compounds were dissolved in 100% DMSO and were diluted at 25 times the final concentration desired for the assay. In the case of the determination of Cl50, serial dilutions were made to reach eight concentrations and give rise to the inhibition curve. 1 μL of each concentration is transferred, in duplicate to a 384-well microplate. 12 μL of enzymatic buffer is added to each well containing purified kinase (several suppliers as indicated above), 100 mM HEPES, pH 7.5, 1 mM DTT (Calbiochem), 0.002% Brij-35 (Sigma) and also in presence of 10 mM MgCl2 as cofactor, except for INSR and IRAK4 wherein 10 mM MnCl2 is used instead of MgCl2. For the kinases CAMK26 and CAMK4, 1 mM CaCl2 and 6.7 μg/mL of calmodulin are also added. For KDR kinase, 0.05% of the CHAPSO detergent is added. For the c-Raf kinase, 10 mM MnCl2 is added. For PKCβ2 0.02 μg/mL of PS/PMA is added. For PKGα se 10 μM of cGMP (cyclic guanosine monophosphate) is added. The compound and the enzyme are left for 15 minutes preincubation and, then, the following are added to each well: 12 μL of peptide buffer/ATP containing 100 mM HEPES, pH 7.5, 1.5 μM peptide marker with fluorescein (specific for the corresponding kinase), ATP (at concentration KM), and 0.002% Brij-35 to start the reaction. Generally, the reactions are incubated for 1-1.5 h at ambient temperature to obtain an adequate conversion (15-40%) of the peptide to the phosphorylated product. The reactions were ended by the addition of 45 μL of buffer containing 0 mM EDTA. The microplates were read by the LabChip 3000 using a 12-channel LabChip. The P/(P+S) values were obtained as described above and the CI50 curves were generated using XIfit.
Table 9a has the 0150 data obtained in pairs of compound-kinase selected from the compounds of formula (VII), (VIII), (IX), (XVI), (XVII) and (XVIII) after taking inhibition measurements at 100 nM and 10 nM. Those couples that provide >70% of inhibition at 10 nM were consider for measuring its IC50. […]

[2] = target: FGFR3 (Homo sapiens, UniProt P22607); assay: LabChip (Caliper) kinase assay, FGFR3; settings: read-out: remaining kinase activity (in %) / percentage of inhibition; for inhibition at 0.01 µM: compound at 10 nM; for inhibition at 0.1 µM: compound at 100 nM
Chain of FGFR3 (P22607 23-806, species assumed): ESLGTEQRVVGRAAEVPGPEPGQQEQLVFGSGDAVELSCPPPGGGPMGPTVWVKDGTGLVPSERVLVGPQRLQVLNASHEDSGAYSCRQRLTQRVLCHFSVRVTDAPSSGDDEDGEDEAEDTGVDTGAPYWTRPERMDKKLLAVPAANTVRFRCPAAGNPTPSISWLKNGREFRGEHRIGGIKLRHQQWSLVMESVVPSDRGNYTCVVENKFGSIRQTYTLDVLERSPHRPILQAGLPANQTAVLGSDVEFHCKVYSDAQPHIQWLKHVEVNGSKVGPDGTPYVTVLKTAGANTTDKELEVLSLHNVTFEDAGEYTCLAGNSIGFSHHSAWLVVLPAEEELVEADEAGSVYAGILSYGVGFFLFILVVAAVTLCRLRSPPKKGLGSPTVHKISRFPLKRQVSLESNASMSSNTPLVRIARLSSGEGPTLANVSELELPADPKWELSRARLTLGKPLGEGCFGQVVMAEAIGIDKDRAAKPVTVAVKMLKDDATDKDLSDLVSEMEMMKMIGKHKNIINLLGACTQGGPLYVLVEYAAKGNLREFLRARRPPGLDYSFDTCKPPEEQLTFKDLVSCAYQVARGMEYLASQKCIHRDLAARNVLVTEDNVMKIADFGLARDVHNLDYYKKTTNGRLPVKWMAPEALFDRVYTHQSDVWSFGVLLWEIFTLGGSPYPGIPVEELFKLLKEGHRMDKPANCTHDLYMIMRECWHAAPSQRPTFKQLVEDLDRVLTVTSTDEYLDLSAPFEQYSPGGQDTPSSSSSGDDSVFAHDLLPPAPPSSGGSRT
Description: as §1, §2, §3, §4
For example, the activity of the Dyrk1a kinase is inhibited in 87% by the compound of formula (III) and completely by the compound of formula (XII) when used at a concentration of 10 nM.

[3] = target: T2, GSK3b (Homo sapiens, UniProt P49841); assay: LabChip (Caliper) kinase assay, GSK3b; settings: read-out: remaining kinase activity (in %) / percentage of inhibition; for inhibition at 0.01 µM: compound at 10 nM; for inhibition at 0.1 µM: compound at 100 nM
T2 construct: purchased Carna Biosciences
T2 sequence (P49841 whole entry): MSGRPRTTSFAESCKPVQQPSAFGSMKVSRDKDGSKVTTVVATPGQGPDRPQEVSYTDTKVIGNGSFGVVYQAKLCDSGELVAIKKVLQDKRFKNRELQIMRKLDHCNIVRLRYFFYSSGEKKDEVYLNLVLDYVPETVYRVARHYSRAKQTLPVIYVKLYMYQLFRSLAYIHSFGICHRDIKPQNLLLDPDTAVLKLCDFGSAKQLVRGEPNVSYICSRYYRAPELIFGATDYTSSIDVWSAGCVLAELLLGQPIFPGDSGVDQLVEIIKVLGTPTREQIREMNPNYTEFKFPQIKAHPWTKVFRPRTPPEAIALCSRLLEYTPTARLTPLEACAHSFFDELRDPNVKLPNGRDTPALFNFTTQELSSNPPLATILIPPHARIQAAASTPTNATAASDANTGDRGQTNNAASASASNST
Description: as §1, §2, §3
as §4, with “XIfit. […]” for “XIfit.”

SMILES	inhibition at 0.01 µM [1] [%]	inhibition at 0.1 µM [1] [%]	inhibition at 0.01 µM [2] [%]	inhibition at 0.1 µM [2] [%]	inhibition at 0.01 µM [3] [%]	inhibition at 0.1 µM [3] [%]	IC50 [1] [nM]
C[C@@H]1O[C@@H](n2c3ccccc3c3c4c(c5c6ccccc6[nH]c5c32)C(=O)NC4=O)C[C@H](O)[C@H]1O [formula (IV), N^13-1′-β-L-olivosylarcyriaflavin]	32	75	-6	3	21	69	–
C[C@H]1O[C@@H](n2c3ccccc3c3c4c(c5c6ccccc6[nH]c5c32)CNC4=O)C[C@@H](O)[C@@H]1O [formula (XV), N^13-1′-β-D-olivosyl-k252c]	14	50	-20	-13	0	0	–
C[C@]12O[C@H](C[C@@H](O)[C@H]1O)n1c3ccccc3c3c4c(c5c6ccccc6n2c5c31)CNC4=O [formula (XVIII), N^12-5′(S)-N^13-1′-(R)-L-digitoxosyl-k252c]	–	–	–	–	–	–	> 100
C[C@@H]1O[C@@H](n2c3ccccc3c3c4c(c5c6ccccc6[nH]c5c32)CNC4=O)[C@H](O)[C@H](O)[C@H]1O [formula (XII), N^13-1′-β-L-rhamnosyl-k252c]	101	115	-2	-1	3	8	–
C[C@@H]1O[C@@H](n2c3ccccc3c3c4c(c5c6ccccc6[nH]c5c32)CNC4=O)C[C@@H](O)[C@H]1O [formula (XIV), N^13-1′-β-L-digitoxosyl-k252c]	15	73	-6	-11	1	7	–
C[C@]12O[C@H](C[C@@H](O)[C@H]1O)n1c3ccccc3c3c4c(c5c6ccccc6n2c5c31)C(=O)NC4=O [formula (IX), N^12-5′(S)-N^13-1′-(R)-L-digitoxosylarcyriaflavin]	–	–	–	–	–	–	> 10
C[C@@H]1O[C@@H](n2c3ccccc3c3c4c(c5c6ccccc6[nH]c5c32)CNC4=O)C[C@H](O)[C@H]1O [formula (XIII), N^13-1′-β-L-olivosyl-k252c]	42	89	-4	-6	2	9	–
C[C@]12O[C@H]([C@H](O)[C@H](O)[C@H]1O)n1c3ccccc3c3c4c(c5c6ccccc6n2c5c31)C(=O)NC4=O [formula (VII), N^12-5′(S)-N^13-1′-(R)-L-rhamnosylarcyriaflavin]	–	–	–	–	–	–	4
C[C@@H]1O[C@@H](n2c3ccccc3c3c4c(c5c6ccccc6[nH]c5c32)C(=O)NC4=O)C[C@@H](O)[C@H]1O [formula (V), N^13-1′-β-L-digitoxosylarcyriaflavin]	49	87	-6	-1	42	81	–
C[C@@H]1O[C@@H](n2c3ccccc3c3c4c(c5c6ccccc6[nH]c5c32)C(=O)NC4=O)[C@H](O)[C@H](O)[C@H]1O [formula (III), N^13-1′-β-L-rhamnosylarcyriaflavin]	87	103	-10	-4	21	72	–
C[C@H]1O[C@@H](n2c3ccccc3c3c4c(c5c6ccccc6[nH]c5c32)C(=O)NC4=O)C[C@@H](O)[C@@H]1O [formula (VI), N^13-1′-β-D-olivosylarcyriaflavin]	62	94	-8	-11	18	69	–
